Results published in publication PMC5522311, “Adapting AlphaLISA high throughput screen to discover a novel small-molecule inhibitor targeting protein arginine methyltransferase 5 in pancreatic and colorectal cancers” (Oncotarget, 2017).

Molecular target: T1, protein arginine methyltransferase 5 (PRMT5) (Homo sapiens, UniProt O14744)
T1 construct: Flag-tagged WT-PRMT5 purified from 293 cells with anti-Flag-M2 beads
Experiment: AlphaLISA methyltransferase assay (biotinylated histone H4 R3 symmetric dimethylation)
Type: biochemical

T1 sequence (O14744 2-637): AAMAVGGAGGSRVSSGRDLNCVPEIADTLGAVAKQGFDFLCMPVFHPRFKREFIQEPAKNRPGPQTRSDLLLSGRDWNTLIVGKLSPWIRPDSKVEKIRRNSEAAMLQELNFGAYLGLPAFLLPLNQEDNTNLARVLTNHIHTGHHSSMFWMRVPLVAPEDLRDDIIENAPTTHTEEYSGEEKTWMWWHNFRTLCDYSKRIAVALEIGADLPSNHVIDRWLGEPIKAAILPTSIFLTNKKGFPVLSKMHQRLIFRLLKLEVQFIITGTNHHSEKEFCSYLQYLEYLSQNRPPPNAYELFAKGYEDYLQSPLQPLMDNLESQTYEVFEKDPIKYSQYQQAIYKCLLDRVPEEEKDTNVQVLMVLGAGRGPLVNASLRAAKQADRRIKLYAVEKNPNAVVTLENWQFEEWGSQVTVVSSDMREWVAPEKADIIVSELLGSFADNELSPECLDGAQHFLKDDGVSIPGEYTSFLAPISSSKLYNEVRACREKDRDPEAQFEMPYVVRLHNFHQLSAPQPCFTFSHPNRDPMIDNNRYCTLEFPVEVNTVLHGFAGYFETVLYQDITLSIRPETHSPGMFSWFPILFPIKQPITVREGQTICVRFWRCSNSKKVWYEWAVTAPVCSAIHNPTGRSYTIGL

IC50: 7.5 µM
SMILES: Cc1ccc(Nc2nc(NCCN(C)C)nc3c2cnn3-c2ccccc2)cc1C [PR5-LL-CM01]
